Values of other authors as cited in patent US20230142073A1 (priority 2020, published 2023).
Where two headings read alike, the source gives them in different places.

Columns and labels:
[1] = system: SARS-CoV-2 infected patients presenting with Severe Acute Respiratory Distress Syndrome (SARDS); conditions: 10 ppm NO inhaled; baseline 102
[2] = system: person with a SARS-CoV-2 infection and Severe Acute Respiratory Distress Syndrome (SARDS); conditions: iv 4 μg/kg/min; for PaO2: baseline 63; for PaO2/FiO2: baseline 70
Sars-Cov-2 ARDS patients = conditions: iv 2 μg/kg/min; in the following 6 hours; 19 patients; baseline 79; p-value=0.001
[3] = system: human patients with a coronavirus (SARS-CoV-2) infection
[4] = system: SARS-CoV-2 infected patients, exhibiting Acute Respiratory Distress Syndrome (ARDS); conditions: iv 10 μg/kg/min, mean maintenance 1.65 μg/kg/min
[5] = 1 hour after almitrine infusion
[6] = 2 hours after almitrine infusion
[7] = 12 hours after almitrine infusion
[8] = 10 patients, iv 4 then 12 μg/kg/min

SMILES | median PaO2/FiO2 after NO [1] [mmHg] | PaO2 [2, 5] [mm Hg] | PaO2/FiO2 [2, 5] [mmHg] | PaO2 [2, 6] [mm Hg] | PaO2/FiO2 [2, 6] [mmHg] | PaO2 [2, 7] [mm Hg] | PaO2/FiO2 [2, 7] [mmHg] | median PaO2/FiO2 after almitrine (Sars-Cov-2 ARDS patients) [mmHg] | median PaO2/FiO2 ratio after almitrine administration ([3]; 10 patients, 135 before almitrine, iv 4 then 12 μg/kg/min) [mmHg] | increase of median PaO2/FiO2 ratio ([3]; 10 patients, from 135 before to 215 after almitrine) [mmHg] | cardiac index [3, 8] | right atrial pressures [3, 8] | number of patients with increased PaO2/FiO2 ([3]; out of 10 human patients (median age 70), iv 4 μg/kg/min for 30-45 min, then 12 μg/kg/min for 30-45 min, intubated and ventilated) | lower mortality ([4]; 32 patients) [%] | side-effects ([4]; 32 patients) | responders (PaO2 increase of more than 20%) ([4]; 32 patients, NO inhaled in 75% of cases) [%] | mean increase in PaO2 ([4]; responders) [%]
[N]=O [NO, Nitric Oxide] | 124 |  |  |  |  |  |  |  |  |  |  |  |  |  |  |  | 
C=CCNc1nc(NCC=C)nc(N2CCN(C(c3ccc(F)cc3)c3ccc(F)cc3)CC2)n1.CS(=O)(=O)O [almitrine dimesylate, 6-[4-[bis(4-fluorophenyl)methyl]piperazin-1-yl]-2-N,4-N-bis(prop-2-enyl)-1,3,5-triazine-2,4-diamine methanesulfonic acid] |  | 67 | 84 | 130 | 216 | 170 | 283 | 117 | 215 | 80 | not affected | not affected | 8 | 16 | no significant side-effects | 66 | 67
